Measurements from BindingDB's records for doi:10.1016/0024-3205(82)90293-4 (University of Arizona, 1982).
Several values for one entry are separate records, joined by “and”; a condition that tells them apart may be missing. Equal values may be shown once.

Molecular target: Voltage-dependent L-type calcium channel subunit alpha-1C (Rattus norvegicus, UniProt P22002)
Sequence (P22002 whole entry): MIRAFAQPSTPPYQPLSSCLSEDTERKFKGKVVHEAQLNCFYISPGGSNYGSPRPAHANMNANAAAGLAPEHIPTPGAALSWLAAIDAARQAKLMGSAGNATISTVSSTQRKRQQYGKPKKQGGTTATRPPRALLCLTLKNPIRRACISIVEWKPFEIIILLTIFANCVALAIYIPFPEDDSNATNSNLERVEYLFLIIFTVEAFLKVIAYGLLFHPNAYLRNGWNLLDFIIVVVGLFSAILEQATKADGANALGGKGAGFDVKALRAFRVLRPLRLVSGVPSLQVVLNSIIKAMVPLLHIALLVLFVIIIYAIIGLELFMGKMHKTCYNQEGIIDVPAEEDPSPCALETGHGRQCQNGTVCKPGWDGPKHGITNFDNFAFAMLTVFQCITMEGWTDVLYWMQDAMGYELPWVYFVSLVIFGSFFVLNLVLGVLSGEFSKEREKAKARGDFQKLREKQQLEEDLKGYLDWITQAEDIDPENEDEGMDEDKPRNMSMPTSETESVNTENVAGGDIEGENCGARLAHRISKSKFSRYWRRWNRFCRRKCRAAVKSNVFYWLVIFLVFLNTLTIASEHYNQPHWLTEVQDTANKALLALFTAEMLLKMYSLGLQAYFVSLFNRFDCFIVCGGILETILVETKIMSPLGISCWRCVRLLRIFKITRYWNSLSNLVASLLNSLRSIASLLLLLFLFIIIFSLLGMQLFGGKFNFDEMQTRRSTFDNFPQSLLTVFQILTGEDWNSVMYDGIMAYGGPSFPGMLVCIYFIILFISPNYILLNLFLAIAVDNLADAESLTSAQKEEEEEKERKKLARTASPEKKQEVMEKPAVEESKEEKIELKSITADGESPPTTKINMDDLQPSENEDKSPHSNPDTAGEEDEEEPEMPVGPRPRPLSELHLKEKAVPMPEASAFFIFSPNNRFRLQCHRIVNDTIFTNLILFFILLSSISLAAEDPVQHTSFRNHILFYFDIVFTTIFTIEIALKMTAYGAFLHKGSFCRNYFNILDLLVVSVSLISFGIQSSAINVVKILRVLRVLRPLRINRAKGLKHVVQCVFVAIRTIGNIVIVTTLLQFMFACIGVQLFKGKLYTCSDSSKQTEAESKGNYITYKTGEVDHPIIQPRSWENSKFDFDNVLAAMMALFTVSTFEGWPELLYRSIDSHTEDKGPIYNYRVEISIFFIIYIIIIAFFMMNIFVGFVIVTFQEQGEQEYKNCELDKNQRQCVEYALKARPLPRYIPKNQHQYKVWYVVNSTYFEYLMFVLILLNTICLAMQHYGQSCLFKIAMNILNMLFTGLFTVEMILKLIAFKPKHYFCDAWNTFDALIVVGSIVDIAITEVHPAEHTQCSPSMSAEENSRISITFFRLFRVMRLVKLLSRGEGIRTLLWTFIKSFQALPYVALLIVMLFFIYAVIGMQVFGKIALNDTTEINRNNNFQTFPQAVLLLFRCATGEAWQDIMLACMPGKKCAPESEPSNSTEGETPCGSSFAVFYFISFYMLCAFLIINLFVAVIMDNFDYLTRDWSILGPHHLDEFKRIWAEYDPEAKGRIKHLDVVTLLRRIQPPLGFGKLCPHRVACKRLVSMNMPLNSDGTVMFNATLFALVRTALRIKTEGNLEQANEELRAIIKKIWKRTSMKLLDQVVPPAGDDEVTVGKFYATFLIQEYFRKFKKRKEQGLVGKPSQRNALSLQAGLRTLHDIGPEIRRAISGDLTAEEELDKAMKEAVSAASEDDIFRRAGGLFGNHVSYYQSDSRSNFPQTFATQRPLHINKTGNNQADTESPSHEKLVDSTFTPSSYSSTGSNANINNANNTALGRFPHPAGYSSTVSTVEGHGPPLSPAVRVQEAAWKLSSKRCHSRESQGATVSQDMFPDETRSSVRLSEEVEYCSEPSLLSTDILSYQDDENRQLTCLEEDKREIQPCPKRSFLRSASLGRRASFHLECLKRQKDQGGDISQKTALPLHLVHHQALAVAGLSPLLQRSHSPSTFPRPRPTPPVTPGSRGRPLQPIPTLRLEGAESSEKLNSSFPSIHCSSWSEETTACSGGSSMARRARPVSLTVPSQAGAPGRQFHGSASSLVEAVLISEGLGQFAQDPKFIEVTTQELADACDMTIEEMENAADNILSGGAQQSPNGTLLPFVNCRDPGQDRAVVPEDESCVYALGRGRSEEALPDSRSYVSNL

| Compound | Ki |
| --- | --- |
| COC(=O)C1C(C)=NC(C)=C(C(=O)OCC(C)C)C1c1ccccc1[N+](=O)[O-] (stereo not drawn) [CAS_4499] | 0.33 nM and 0.5 nM |
| COc1ccc(CCN(C)CCCC(C#N)(c2cc(OC)c(OC)c(OC)c2)C(C)C)cc1OC (stereo not drawn) [GALLOPAMIL] | 42 nM |
| COCCOC(=O)C1=C(C)N=C(C)C(C(=O)OC(C)C)C1c1cccc([N+](=O)[O-])c1 (stereo not drawn) [Nimotop] | 0.56 nM and 0.79 nM |
